Test results as given in patent publication US20250152528A1, “RAPID RELIEF SPRAY” (HALEON US HOLDINGS LLC, priority 2022, published 2025).
Structures can show the parent of a compound that is named as a salt.

Legend:
[1] = Two weak acid combinations with lidocaine citrate: pH, precipitation and stability at 4° C. for 3 months; details: for Observation: appearance of solution; for Time to Lidocaine Citrate Precipitation: kept at 4° C. for 3 months; for pH: lidocaine citrate solution (25 wt. % ethanol, 15 wt. % glycerin, 2.5 wt. % propylene glycol) with 2 wt. % acidifying agent; for colour of solution after change from clear: ambient conditions
[2] = has been observed; in aqueous solutions; cited from earlier work
[3] = cited from earlier work
[4] = Crystallization inhibitors and free base lidocaine crystallization in low pH solutions; type: physicochemical; details: 5.0 wt. % lidocaine free base, Example 1 composition; 0.5, 1.0, 2.0 wt. % Kollidon VA 64, PVP K-90, PVP K-25 or PVP K-30; pH=3.5 and pH=4 by excess citric acid; 24 samples
[5] = 5.0 wt. % lidocaine free base, 3.6 wt. % citric acid, 15 wt. % glycerin, 25 wt. % ethanol, water; pH adjusted between 4.5 to 3.5 with excess citric acid at 25° C.
[6] = 5 wt. % lidocaine free base in water with 24 wt. % isopropyl alcohol, 54 wt. % ethanol, or 10 wt. % isopropyl alcohol and 20 wt. % ethanol; pH 4.0 and 3.5 by excess citric acid
[7] = 2% acidifying agent, pH range of 4.2 to 3.3

| Compound | Observation ([1]; 2 wt. % acidifying agent) | Time to Lidocaine Citrate Precipitation ([1]; 2 wt. % acidifying agent) | pH [1] | also measured |
| --- | --- | --- | --- | --- |
| CC(=O)O [Acetic Acid] | Clear | Not observed | 4.00 | – |
| O=C(O)CCCCC(=O)O [Adipic Acid] | – | – | – | prevention of lidocaine citrate precipitation ([1]; 5% acidifying agent): did not prevent precipitation; Observation ([1]; 5% acidifying agent): Clear; Time to Lidocaine Citrate Precipitation ([1]; 5% acidifying agent): 2 weeks |
| O=C1O[C@H]([C@@H](O)CO)C(O)=C1O [Ascorbic acid] | – | – | – | prevention of lidocaine citrate precipitation ([1]; 5% acidifying agent): prevented lidocaine citrate precipitation; colour of solution after change from clear ([1]; 5% acidifying agent): orange; Observation ([1]; 5% acidifying agent): Oxidized; Time to Lidocaine Citrate Precipitation ([1]; 5% acidifying agent): Not observed |
| O=C(O)[C@H](O)[C@@H](O)C(=O)O [L-Tartaric acid] | Clear | Not observed | 3.71 | – |
| CC(O)C(=O)O (stereo not shown) [Lactic acid] | Clear | Not observed | 4.05 | – |
| CNC[C@H](O)c1cccc(O)c1 [Phenylephrine] | – | – | – | pH of solutions in which stable ([3]; background statement): ≤ 4.0 |
| CCN(CC)CC(=O)Nc1c(C)cccc1C [lidocaine free base, lidocaine] | – | – | – | lidocaine crystallization with crystallization inhibitors [4]: thick layer of lidocaine crystallization; pH at which precipitation of lidocaine starts [5]: 4.0 |
| CNC[C@H](O)c1cccc(O)c1 [phenylephrine HCl] | – | – | – | pH of solutions in which unstable ([3]; approximately): > 4 |
| lidocaine citrate | – | – | – | crystallization in aqueous alcohol cosolvents [6]: crystallized out of all samples as an opaque layer; pH of lower pH solutions in which the salt crystallizes out (citrate salt generated in situ): ≤ 4.5 |
| lidocaine malate | – | – | – | crystallization at low pH on storage (1:1 molar lidocaine free base and malic acid in water, excess malic acid to pH 3.6, several weeks at 4° C.): No lidocaine malate crystallization was observed |

Continued, in another order:

| Observation ([1]; 2 wt. % acidifying agent) | Time to Lidocaine Citrate Precipitation ([1]; 2 wt. % acidifying agent) | pH [1] | Compound | also measured |
| --- | --- | --- | --- | --- |
| Oxidized | Not observed | 3.72 | O=C(O)/C=C/C(=O)O [Fumaric acid] | colour of solution after change from clear ([1]; 2% acidifying agent): pale yellow solutions; prevention of lidocaine citrate precipitation [1, 7]: prevented lidocaine citrate precipitation |
| Oxidized | Not observed | 3.32 | O=C(O)/C=C\C(=O)O [Maleic acid] | colour of solution after change from clear ([1]; 2% acidifying agent): pale yellow solutions; prevention of lidocaine citrate precipitation [1, 7]: prevented lidocaine citrate precipitation |
| Clear | Not observed | 3.93 | O=C(O)CC(O)C(=O)O (stereo not shown) [Malic Acid] | amount at which irritant to a healthy skin [2]: ≥ 5 wt. % |
| Clear | Not observed | 4.23 | O=C(O)CCC(=O)O [Succinic acid] | – |
